This assay has as its system P388 leukemia ip, CD2F1 mice, survival T/C. Kind of assay: NCI In Vivo Anticancer Drug Screen. Data for tumor model P388 Leukemia (intraperitoneal) in CD2F1 (CDF1) mice. The settings on record: endpoint: median survival time, higher = longer survival. In short, it runs like this:
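Mice carrying the transplanted tumor received test compound or vehicle. Survival was recorded in each group, and the value is the treated-group measurement divided by that of the vehicle-treated control group.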

Setting [1] is: dose: 50.0 mg/kg/injection, schedule: Q01DX005 (ip), vehicle: Klucel (hydroxypropylcellulose) (HPC).
[2] abbreviates: dose: 100.0 mg/kg/injection, schedule: Q01DX005 (ip), vehicle: Klucel (hydroxypropylcellulose) (HPC).
Where [3] appears, read: dose: 200.0 mg/kg/injection, schedule: Q01DX005 (ip), vehicle: Klucel (hydroxypropylcellulose) (HPC).
The mark [4] stands for this setting: dose: 12.5 mg/kg/injection, schedule: Q01DX005 (ip), vehicle: saline with Tween-80.

The structures appear in SMILES notation. Values joined by “and” are separate entries in the source; they are usually repeats but may differ in a detail not shown here. Equal entries are not always repeated. Toxic doses and inconclusive results are not listed.

In the case of `COc1ccc([I+]c2ccccc2)cc1`, the T/C by setting is: (dose: 1.5 mg/kg/injection, schedule: Q01DX009 (ip), vehicle: saline) 109 % of control; (dose: 2.5 mg/kg/injection, schedule: Q01DX009 (ip), vehicle: saline sonified) 100 % of control; (dose: 3.0 mg/kg/injection, schedule: Q01DX009 (ip), vehicle: saline) 109 % of control; (dose: 6.0 mg/kg/injection, schedule: Q01DX009 (ip), vehicle: saline) 122 % of control.

For `O=S(=O)(O/C(=C(\OS(=O)(=O)C(F)(F)F)c1ccccc1)c1ccccc1)C(F)(F)F`, the T/C was 97 % of control under setting [1], 98 % of control under setting [2] and 91 % of control under setting [3].

Consider `COc1ccc2cc(-c3ccccc3)[s+]cc2c1`, for which the T/C by setting is: (dose: 3.12 mg/kg/injection, schedule: Q01DX009 (ip), vehicle: DMSO) 91 % of control; (dose: 6.25 mg/kg/injection, schedule: Q01DX009 (ip), vehicle: DMSO) 86 % of control; (dose: 12.5 mg/kg/injection, schedule: Q01DX009 (ip), vehicle: DMSO) 89 % of control; (dose: 50.0 mg/kg/injection, schedule: Q01DX009 (ip), vehicle: DMSO) 99 % of control.

For `CCc1cccc2c(NCCCCCCCCNc3c4ccccc4nc4c(CC)cccc34)c3ccccc3nc12`, the T/C is, setting by setting: (dose: 0.63 mg/kg/injection, schedule: Q01DX005 (ip), vehicle: other) 110 % of control; (dose: 1.25 mg/kg/injection, schedule: Q01DX005 (ip), vehicle: other) 110 % of control; (dose: 2.5 mg/kg/injection, schedule: Q01DX005 (ip), vehicle: other) 122 % of control; (dose: 3.75 mg/kg/injection, schedule: Q01DX005 (ip), vehicle: other) 104 % of control; (dose: 5.0 mg/kg/injection, schedule: Q01DX005 (ip), vehicle: other) 113 % of control; (dose: 7.5 mg/kg/injection, schedule: Q01DX005 (ip), vehicle: other) 118 % of control. The T/C (dose: 10.0 mg/kg/injection, schedule: Q## X009 (ip), vehicle: lactic acid) is 110 % of control.

As to `CNCC(CO)C(C)(C)C` (stereo not drawn), the T/C was 101 % of control (dose: 100.0 mg/kg/injection, schedule: Q04DX003 (ip), vehicle: saline) and 92 % of control (dose: 200.0 mg/kg/injection, schedule: Q04DX003 (ip), vehicle: saline).

On to `BrCC1(CBr)OCCO1`, for which the T/C (dose: 50.0 mg/kg/injection, schedule: Q01DX009 (ip), vehicle: saline with Tween-80) was 106 % of control.

As for `CC1CC(OC(=O)CSC#N)CC(C)(C)C1` (stereo not drawn), the T/C is, setting by setting: under setting [4], 104 % of control; (dose: 25.0 mg/kg/injection, schedule: Q01DX005 (ip), vehicle: saline with Tween-80) 101 % of control; (dose: 50.0 mg/kg/injection, schedule: Q01DX005 (ip), vehicle: saline with Tween-80) 101 % of control and 108 % of control.

With `CNC(=O)c1nn(-c2ccccc2)c2oc(=O)cc(C)c12`, the T/C under setting [1] was 95 % of control, the T/C under setting [2] is 87 % of control and the T/C under setting [3] is 87 % of control.

As for `COC(=O)C[C@](O)(CCCC(C)(C)O)C(=O)O[C@@H]1C(OC)=C[C@]23CCCN2CCc2cc4c(cc2[C@H]13)OCO4`, the T/C is, setting by setting: (dose: 0.06 mg/kg/injection, schedule: Q01DX005 (iv), vehicle: clinical formulation) 106 % of control; (dose: 0.06 mg/kg/injection, schedule: Q01DX005 (iv), vehicle: saline) 104 % of control; (dose: 0.12 mg/kg/injection, schedule: Q01DX005 (iv), vehicle: clinical formulation) 112 % of control; (dose: 0.12 mg/kg/injection, schedule: Q01DX005 (iv), vehicle: saline) 102 % of control; (dose: 0.12 mg/kg/injection, schedule: Q01DX009 (ip), vehicle: clinical formulation) 155 % of control; (dose: 0.12 mg/kg/injection, schedule: Q01DX009 (ip), vehicle: saline) 152 % of control. For the same compound, the T/C reads like this: (dose: 0.25 mg/kg/injection, schedule: Q01DX005 (iv), vehicle: clinical formulation) 121 % of control; (dose: 0.25 mg/kg/injection, schedule: Q01DX005 (iv), vehicle: saline) 102 % of control; (dose: 0.25 mg/kg/injection, schedule: Q01DX009 (ip), vehicle: clinical formulation) 166 % of control; (dose: 0.25 mg/kg/injection, schedule: Q01DX009 (ip), vehicle: saline) 162 % of control; (dose: 0.5 mg/kg/injection, schedule: Q01DX005 (iv), vehicle: clinical formulation) 160 % of control; (dose: 0.5 mg/kg/injection, schedule: Q01DX009 (ip), vehicle: clinical formulation) 199 % of control. The T/C by setting is: (dose: 0.5 mg/kg/injection, schedule: Q01DX009 (ip), vehicle: saline) 185 % of control; (dose: 0.58 mg/kg/injection, schedule: Q01DX009 (ip), vehicle: acid diluted with saline) 194 % of control; (dose: 0.75 mg/kg/injection, schedule: Q01DX009 (ip), vehicle: acid diluted with saline) 173 % of control and 180 % of control; (dose: 1.0 mg/kg/injection, schedule: Q01DX005 (iv), vehicle: clinical formulation) 194 % of control; (dose: 1.0 mg/kg/injection, schedule: Q01DX005 (iv), vehicle: saline) 168 % of control; (dose: 1.0 mg/kg/injection, schedule: Q01DX009 (ip), vehicle: clinical formulation) 252 % of control. The T/C was 211 % of control and 229 % of control (dose: 1.65 mg/kg/injection, schedule: Q01DX009 (ip), vehicle: acid diluted with saline); 229 % of control and 234 % of control and 93 % of control (dose: 1.75 mg/kg/injection, schedule: Q01DX009 (ip), vehicle: acid diluted with saline); 159 % of control (dose: 1.8 mg/kg/injection, schedule: Q04DX003 (ip), vehicle: saline + alcohol); 152 % of control (dose: 1.8 mg/kg/injection, schedule: Q04DX003 (ip), vehicle: saline); 203 % of control (dose: 2.0 mg/kg/injection, schedule: Q01DX005 (iv), vehicle: saline); 223 % of control (2×) and 93 % of control (dose: 2.25 mg/kg/injection, schedule: Q01DX009 (ip), vehicle: acid diluted with saline). Moreover, the T/C is 106 % of control and 95 % of control (dose: 2.5 mg/kg/injection, schedule: Q01DX009 (ip), vehicle: acid diluted with saline); 66 % of control (dose: 3.0 mg/kg/injection, schedule: Q01DX009 (ip), vehicle: acid diluted with saline); 99 % of control (dose: 3.0 mg/kg/injection, schedule: Q04DX003 (ip), vehicle: saline + alcohol); 103 % of control (dose: 3.33 mg/kg/injection, schedule: Q04DX003 (ip), vehicle: saline).

For the compound `COc1cccc2c1C(=O)c1c(O)c3c(c(O)c1C2=O)C[C@@](O)(C(=O)COc1ccccc1)C[C@@H]3OC1CC(N)C(O)C(C)O1` (stereo partly drawn), the T/C is, setting by setting: (dose: 1.56 mg/kg/injection, schedule: Q01DX009 (ip), vehicle: water) 151 % of control and 169 % of control; (dose: 3.13 mg/kg/injection, schedule: Q01DX009 (ip), vehicle: water) 155 % of control and 179 % of control; (dose: 6.25 mg/kg/injection, schedule: Q01DX009 (ip), vehicle: water) 174 % of control and 186 % of control; (dose: 12.5 mg/kg/injection, schedule: Q01DX009 (ip), vehicle: water) 176 % of control and 179 % of control.

Consider `Cn1c(=O)ccc2c(=O)c3cc(Br)ccc3oc21`, for which the T/C by setting is: (dose: 100.0 mg/kg/injection, schedule: Q01DX001 (ip), vehicle: saline with Tween-80) 98 % of control; (dose: 200.0 mg/kg/injection, schedule: Q01DX001 (ip), vehicle: saline with Tween-80) 107 % of control; (dose: 400.0 mg/kg/injection, schedule: Q01DX001 (ip), vehicle: saline with Tween-80) 96 % of control.

With `CC(C)NC(=S)S`, the T/C was 104 % of control (dose: 25.0 mg/kg/injection, schedule: Q01DX009 (ip), vehicle: saline sonified); 100 % of control (dose: 50.0 mg/kg/injection, schedule: Q01DX009 (ip), vehicle: saline sonified); 109 % of control (dose: 100.0 mg/kg/injection, schedule: Q01DX009 (ip), vehicle: saline sonified).

`NC(=O)c1ncnc2nc[nH]c12`: the T/C (dose: 1.56 mg/kg/injection, schedule: Q01DX005 (ip), vehicle: saline with Tween-80) was 100 % of control and 102 % of control and 96 % of control; the T/C (dose: 3.13 mg/kg/injection, schedule: Q01DX005 (ip), vehicle: saline with Tween-80) was 100 % of control and 105 % of control; the T/C under setting [4] was 111 % of control and 114 % of control.
